Data taken from patent US7960584B2, “Compounds, isomer thereof, or pharmaceutically acceptable salts thereof as vanilloid receptor antagonist; and pharmaceutical compositions containing the same” (Amorepacific Corporation, priority 2005, dated 2011).

How the values were obtained:
Male ICR mice = assay: Analgesic activity test: mouse writhing test induced with phenyl-p-quinone; assay type: in vivo; details: dose 1 mg/kg intraperitoneally 30 min before phenyl-p-quinone 4.5 mg/kg i.p.; writhes counted 6-12 min after
Protocol: 2. Analgesic Activity Test: Mouse Writhing Test by Inducing with Phenyl-p-quinone
Male ICR mice (mean body weight 25 g) were maintained in a controlled lighting environment (12 h on/12 h off) for experiment. Animals received an intraperitoneal injection of 0.3 ml of the chemical irritant phenyl-p-quinone (dissolved in saline containing 5% ethanol to be a dose of 4.5 mg/kg) and 6 mins later, the number of abdominal constrictions was counted in the subsequent 6 mins period. Animals (10 animals/group) received 0.2 ml of test compounds solution in vehicle of ethanol/Tween 80/saline (10/10/80) intraperitoneally 30 min before the injection of phenyl-p-quinone. A reduction in the number of writhes responding to the test drug compound relative to the number responding in saline control group was considered to be indicative of an analgesic effect. Analgesic effect was calculated by % inhibition equation (% inhibition=(C−T)/C×100), wherein C and T represent the number of writhes in control and compound-treated group, respectively (Table 2).

vanilloid receptor = biological target: T1, vanilloid receptor (Rattus norvegicus, UniProt O35433); assay: 45Ca influx test in primary cultured DRG neurons (capsaicin-induced calcium uptake); assay type: cell-based; details: neonatal SD rat DRG neurons; capsaicin 0.5 μM; 45Ca 10 μCi/ml; 10 min at room temperature
T1 construct: DRG nerve cells from the primary culture of 2 days were equilibrated; endogenous in cells; host or cells: primary culture of dorsal root ganglion neurons from neonatal SD rats
T1 sequence (O35433 whole entry): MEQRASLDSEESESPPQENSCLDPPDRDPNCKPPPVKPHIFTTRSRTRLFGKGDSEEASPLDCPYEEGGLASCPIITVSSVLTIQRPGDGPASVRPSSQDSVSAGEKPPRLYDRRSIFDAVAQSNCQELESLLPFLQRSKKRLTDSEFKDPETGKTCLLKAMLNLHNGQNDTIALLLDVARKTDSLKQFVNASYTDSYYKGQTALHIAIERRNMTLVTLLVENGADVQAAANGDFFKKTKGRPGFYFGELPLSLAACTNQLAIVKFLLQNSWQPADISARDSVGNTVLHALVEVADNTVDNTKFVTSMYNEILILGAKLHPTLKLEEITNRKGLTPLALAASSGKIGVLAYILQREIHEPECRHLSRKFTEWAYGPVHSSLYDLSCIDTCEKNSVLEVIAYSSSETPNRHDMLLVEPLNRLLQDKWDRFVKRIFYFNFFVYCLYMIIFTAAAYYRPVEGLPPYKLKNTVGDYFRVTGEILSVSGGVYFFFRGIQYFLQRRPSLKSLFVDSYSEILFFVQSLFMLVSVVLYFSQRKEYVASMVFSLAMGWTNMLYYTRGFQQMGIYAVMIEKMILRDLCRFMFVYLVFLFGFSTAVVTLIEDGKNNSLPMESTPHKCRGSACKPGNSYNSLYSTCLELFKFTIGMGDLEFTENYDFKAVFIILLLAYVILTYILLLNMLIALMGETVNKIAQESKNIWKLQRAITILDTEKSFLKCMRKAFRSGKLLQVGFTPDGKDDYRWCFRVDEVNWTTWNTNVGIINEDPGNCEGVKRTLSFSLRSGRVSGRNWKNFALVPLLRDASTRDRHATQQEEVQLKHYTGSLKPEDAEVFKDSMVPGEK
Protocol: 1) Separation of Spinal Dorsal Root Ganglia (DRG) in Newborn Rats and Primary Culture Thereof
Neonatal (2-3 day old or younger than 2-3 day old) SD rats were put in ice for 5 minutes to anesthetize and disinfected with 70% ethanol. DRG of all part of spinal cord were dissected (Wood et al., 1988, J. Neurosci. 8, pp 3208-3220) and collected in DME/F12 medium to which 1.2 g/l sodium bicarbonate, 50 mg/l gentamycin were added. The DRG were incubated sequentially at 37° C. for 30 min in 200 U/ml collagenase and 2.5 mg/ml trypsin, separately. The ganglia were washed twice with DME/F12 medium supplemented with 10% horse serum, triturated through a fire-polished Pasteur pipette, filtered through Nitex 80 membrane to obtain single cell suspension and the suspension was washed once more. This was subjected to centrifugation, then resuspended in cell culture medium at certain level of cell density. As the cell culture medium, DME/F12 medium supplemented with 10% horse serum was diluted with identical medium conditioned by C6 glioma cells 2 days on a confluent monolayer (1:1), and NGF (Nerve Growth Factor) was added to adjust 200 ng/ml as final concentration. After the cells were grown 2 days in medium where cytosine arabinoside (Ara-C, 100 μM) was added to kill dividing nonneuronal cells, medium was changed to one without Ara-C. The resuspended cells were plated at a density of 1500-2000 neurons/well onto Terasaki plates previously coated with 10 μg/ml poly-D-ornithine.
2) ^45Ca Influx Experiments
DRG nerve cells from the primary culture of 2 days were equilibrated by washing 4 times with HEPES (10 mM, pH 7.4)-buffered Ca^2+, Mg^2+-free HBSS (H-HBSS). The solution in each well was removed from the individual well. Medium containing the test compound plus capsaicin (final concentration 0.5 μM) and ^45Ca (final concentration 10 μCi/ml) in H-HBSS was added to each well and incubated at room temperature for 10 mins. Terasaki plates were washed five times with H-HBSS and dried at room temperature. To each well, 0.3% SDS (10 μl) was added to elute ^45Ca. After the addition of scintillation cocktail of into each well, the amount of ^45Ca influx into neuron was measured by counting radioactivity.

For Cc1cc(CNC(=O)NCc2ccc(C(C)(C)C)cc2)ccc1NS(C)(=O)=O [Example 21, N-{4-[3-(4-t-butylbenzyl)ureidomethyl]-2-methylphenyl}methane sulfonamide], the “Analgesic effect (% Inhibition)” value (Male ICR mice) was 58 % Inhibition and the IC50 (vanilloid receptor) was 83 nM.

With Cc1cc(CNC(=O)/C=C/c2ccc(C(C)(C)C)cc2)cc(Cl)c1NS(C)(=O)=O [Example 7, 3-(4-t-Butyl-phenyl)-N-(3-chloro-4-methanesulfonylamino-5-methylbenzyl)acrylamide] the IC50 (vanilloid receptor) was 360 nM.

Molecule C/C(=C\C(=O)NCc1ccc(NS(C)(=O)=O)c(F)c1)c1ccc(C(C)(C)C)cc1 [Example 13, 3-(4-t-Butyl-phenyl)-but-2-enoic acid 3-fluoro-4-methanesulfonylamino-benzylamide] has an IC50 (vanilloid receptor) of 150 nM.

CC(C)(C)c1ccc(CNC(=O)NCc2cc(I)c(NS(C)(=O)=O)cc2Cl)cc1 [Example 18, N-{4-[3-(4-t-butylbenzyl)ureidomethyl]-5-chloro-2-Iodophenyl}methanesulfonamide] showed an IC50 (vanilloid receptor) of 530 nM.

CC(C)(C)c1ccc(C#CC(=O)NCc2ccc(NS(C)(=O)=O)cc2)cc1 [Example 15, 3-(4-t-butylphenyl)-N-[4-(methanesulfonylamino)benzyl]propiolicamide] gave an IC50 (vanilloid receptor) of 590 nM.

In the case of CCc1cc(CNC(=O)NCc2ccc(C(C)(C)C)cc2)c(Cl)cc1NS(C)(=O)=O [Example 28, N-{4-[3-(4-t-Butylbenzyl)-ureidomethyl]-5-chloro-2-ethylphenyl}methanesulfonamide], the IC50 (vanilloid receptor) is reported as 290 nM.

With CC(C)(C)c1ccc(/C=C/C(=O)NCc2cc(F)c(NS(C)(=O)=O)c(I)c2)cc1 [Example 8, 3-(4-t-butylphenyl)-N-(3-fluoro-5-iodo-4-methanesulfonylaminobenzyl)acrylamide] the IC50 (vanilloid receptor) was 180 nM.

CC(C)(C)c1ccc(CNC(=O)NCc2ccc(NS(C)(=O)=O)c(Cl)c2)cc1 [Example 22, N-{4-[3-(4-t-butylbenzyl)ureidomethyl]-2-chlorophenyl}methane sulfonamide] showed a melting point of 60 to 61 °C and an IC50 (vanilloid receptor) of 240 nM.

With CC(C)(C)c1ccc(CNC(=O)NCc2ccc(NS(C)(=O)=O)c(F)c2)cc1 [Example 20, N-{4-[3-(4-t-butylbenzyl)ureidomethyl]-2-fluorophenyl}methanesulfonamide] the “Analgesic effect (% Inhibition)” value (Male ICR mice) was 82 % Inhibition.

With Cc1cc(CNC(=O)/C=C/c2ccc(C(C)(C)C)cc2)cc(F)c1NS(C)(=O)=O [Example 9, 3-(4-t-Butyl-phenyl)-N-(3-fluoro-4-methanesulfonylamino-5-methyl-benzyl)-acrylamide] the IC50 (vanilloid receptor) was 360 nM.

Work on CC(C)(C)c1ccc(/C=C/C(=O)NCc2cc(F)c(NS(C)(=O)=O)cc2F)cc1 [Example 5, 3-(4-t-Butyl-phenyl)-N-(2,5-difluoro-4-methanesulfonylamino-benzyl)-acrylamide] yielded an IC50 (vanilloid receptor) of 210 nM.

With C/C(=C\c1ccc(C(C)(C)C)cc1)C(=O)NCc1ccc(NS(C)(=O)=O)cc1 [Example 10, 3-(4-t-butylphenyl)-N-(4-methanesulfonylaminobenzyl)-2-methyl-acrylamide] the IC50 (vanilloid receptor) was 440 nM.

With C/C(=C\c1ccc(C(C)(C)C)cc1)C(=O)N[C@H](C)c1ccc(NS(C)(=O)=O)cc1 [Example 11, 3-(4-t-Butylphenyl)-N-[1-(R)-(4-methanesulfonylaminophenyl)ethyl]-2-methylacrylamide] the “Analgesic effect (% Inhibition)” value (Male ICR mice) was 56 % Inhibition and the IC50 (vanilloid receptor) was 46 nM.

With CC(C)(C)c1ccc(CNC(=O)NCc2cc(F)c(NS(C)(=O)=O)c(I)c2)cc1 [Example 17, N-{4-[3-(4-t-butylbenzyl)ureidomethyl]-2-fluoro-6-iodophenyl}methanesulfonamide] the IC50 (vanilloid receptor) was 290 nM.

Work on CCc1cc(CNC(=O)NCc2ccc(C(C)(C)C)cc2)cc(F)c1NS(C)(=O)=O [Example 19, N-{4-[3-(4-t-butylbenzyl)ureidomethyl]-2-ethyl-6-fluorophenyl}methanesulfonamide] yielded an IC50 (vanilloid receptor) of 150 nM.

Molecule CC(C)(C)c1ccc(/C=C/C(=O)NCc2cc(Cl)c(NS(C)(=O)=O)c(I)c2)cc1 [Example 6, 3-(4-t-Butylphenyl)-N-(3-chloro-5-iodo-4-methanesulfonylamino-benzyl)acrylamide] has an IC50 (vanilloid receptor) of 350 nM.

CC(C)(C)c1ccc(CNC(=O)NCc2cc(F)c(NS(C)(=O)=O)c(F)c2)cc1 [Example 25, N-{4-[3-(4-t-Butyl-benzyl)-ureidomethyl]-2,6-difluoro-phenyl}-methanesulfonamide] gave an IC50 (vanilloid receptor) of 470 nM.

For CC(C)(C)c1ccc(/C=C/C(=O)NCc2cc(F)c(NS(C)(=O)=O)c(F)c2)cc1 [Example 4, 3-(4-t-Butyl-phenyl)-N-(3,5-difluoro-4-methanesulfonylamino-benzyl)-acrylamide], the IC50 (vanilloid receptor) was 310 nM.

With Cc1cc(CNC(=O)NCc2ccc(C(C)(C)C)cc2)cc(F)c1NS(C)(=O)=O [Example 29, N-{4-[3-(4-t-Butyl-benzyl)-ureidomethyl]-2-fluoro-6-methyl-phenyl}-methanesulfonamide] the “Analgesic effect (% Inhibition)” value (Male ICR mice) was 54 % Inhibition and the IC50 (vanilloid receptor) was 73 nM.

In the case of C[C@@H](NC(=O)C#Cc1ccc(C(C)(C)C)cc1)c1ccc(NS(C)(=O)=O)cc1 [Example 16, 3-(4-t-butylphenyl)-N-[1-(R)-(4-methanesulfonylaminophenyl)ethyl]propiolicamide], the IC50 (vanilloid receptor) is reported as 100 nM.

CC(C)(C)c1ccc(CNC(=O)NCc2ccc(NS(C)(=O)=O)c([N+](=O)[O-])c2)cc1 [Example 23, N-{4-[3-(4-t-butylbenzyl)ureidomethyl]-2-nitrophenyl}methane sulfonamide] showed an IC50 (vanilloid receptor) of 240 nM.

Molecule CC(C)(C)c1ccc(/C=C/C(=O)NCc2ccc(NS(C)(=O)=O)c(Cl)c2)cc1 [Example 2, 3-(4-t-Butyl-phenyl)-N-(3-chloro-4-methanesulfonylamino-benzyl)-acrylamide] has an IC50 (vanilloid receptor) of 260 nM.

With CC(C)(C)c1ccc(CNC(=O)NCc2ccc(NS(C)(=O)=O)c(I)c2)cc1 [Example 24, N-{4-[3-(4-t-Butyl-benzyl)-ureidomethyl]-2-iodo-phenyl}-methanesulfonamide] the IC50 (vanilloid receptor) was 390 nM.

Work on C/C(=C\c1ccc(C(C)(C)C)cc1)C(=O)NCc1ccc(NS(C)(=O)=O)c(F)c1 [Example 12, 3-(4-t-Butylphenyl)-N-(3-fluoro-4-methanesulfonylaminobenzyl)-2-methylacrylamide] yielded an IC50 (vanilloid receptor) of 120 nM.

Cc1cc(CNC(=O)NCc2ccc(C(C)(C)C)cc2)cc(Cl)c1NS(C)(=O)=O [Example 27, N-{4-[3-(4-t-Butylbenzyl)ureidomethyl]-2-chloro-6-methylphenyl}methanesulfonamide] gave an IC50 (vanilloid receptor) of 190 nM.

For C/C(=C\c1ccc(C(C)(C)C)cc1)C(=O)N[C@H](C)c1ccc(NS(C)(=O)=O)c(F)c1 [Example 14, 3-(4-t-Butyl-phenyl)-N-[1-(3-fluoro-4-methanesulfonylaminophenyl)ethyl]-2-methylacrylamide], the “Analgesic effect (% Inhibition)” value (Male ICR mice) was 42 % Inhibition and the IC50 (vanilloid receptor) was 41 nM.

In the case of CC(C)(C)c1ccc(CNC(=O)NCc2cc(F)c(NS(C)(=O)=O)cc2F)cc1 [Example 26, N-{4-[3-(4-t-Butyl-benzyl)-ureidomethyl]-2,5-difluoro-phenyl}-methanesulfonamide], the IC50 (vanilloid receptor) is reported as 560 nM.

Work on Cc1cc(CNC(=O)/C=C/c2ccc(C(C)(C)C)cc2)ccc1NS(C)(=O)=O [Example 3, 3-(4-t-Butyl-phenyl)-N-(3-methyl-4-methanesulfonylamino-benzyl)-acrylamide] yielded an IC50 (vanilloid receptor) of 290 nM.
